This note sets out measurements from patent publication US20240294499A1, “TARGETED PROTEIN DEGRADATION USING BIFUNCTIONAL COMPOUNDS THAT BIND UBIQUITIN LIGASE AND TARGET MCL-1 PROTEIN” (Captor Therapeutics S.A., priority 2021, published 2024).

Structures are written as SMILES. Structures can show the parent of a compound that is named as a salt.

The subject of the first assay is MV-4-11 cells. Put plainly: Cell viability assay (CellTiter-Glo), MV-4-11. It is filed as cell-based. Conditions: Homo sapiens, MV4-11, 24 hours incubation, 1% FBS, read-out: Average pIC50 by molecule MV-4-11 (converted). From the text: The effect of various compounds of the invention on the viability of OPM-2, MV-4-11 and ARH-77 cell lines was investigated, using the CTG protocol described below.
OPM-2 and MV-4-11 cell lines are derived from multiple myeloma and acute myeloid leukaemia, respectively. Both cell lines are described in the literature as MCL-1 dependent lines, as opposed to lymphoblast-like ARH-77 cell line, which is described as independent of MCL-1 (Tron A E et al. Nat Commun. 2018; 9: 5341; Caenepeel S et al. Cancer Discov. 2018 December; 8(12):1582-1597).
Cells (OPM-2, MV-4-11 or ARH-77) were seeded on […] in a growth medium with FBS reduced to 1%. Next, compound stocks were pre-diluted in DMSO and added directly to the cells growth medium (final DMSO concentration: 0.5%). Compound concentrations used in this assay: 1/3 dilutions starting at 30 uM (9 to 12 points).
After 24 hours of incubation, cell viability was evaluated using CellTiter-Glo Luminescent Cell Viability Assay (Promega, cat #G7572). Luminescence signal was measured using a CLARIOstar Plus Multi-Mode Microplate Reader (574-590 nm).
Results were normalized to DMSO control.
Take `Cc1nn(C)c(C)c1-c1c(Cl)ccc2c(CCCOc3cccc4ccccc34)c(C(=O)O)n(CCN3CCN(C(=O)COc4cccc5c4C(=O)N(C4CCC(=O)N(C)C4=O)C5=O)CC3)c12` (stereo not shown) [Compound 205, 6-chloro-1-(2-(4-(2-((2-(1-methyl-2,6-dioxopiperidin-3-yl)-1,3-dioxoisoindolin-4-yl)oxy)acetyl)piperazin-1-yl)ethyl)-3-(3-(naphthalen-1-yloxy)propyl)-7-(1,3,5-trimethyl-1H-pyrazol-4-yl)-1H-indole-2-carboxylic acid]: the IC50 is at most 316 nM.
`Cc1nn(C)c(C)c1-c1c(Cl)ccc2c(CCCOc3cccc4ccccc34)c(C(=O)O)n(CCN3CCN(C(=O)CCc4nc5c(C(=O)NC6CCC(=O)NC6=O)cccc5[nH]4)CC3)c12` (stereo not shown) [Compound 265]: the IC50 is at most 1000 nM.

A further assay deals with [MCL-1]-[compound of formula (I)]-[CRBN/DDB1] complex (Homo sapiens, UniProt Q07820+Q96SW2). Kind of assay: AlphaLISA dose response ternary complex formation assay. It is filed as binding. Conditions: read-out: AlphaLISA dose response Average pEC50 by molecule (converted). As to the method: The effect of the bifunctional compounds of the invention on the formation of a ternary complex composed of [MCL-1]-[compound of formula (I)]-[CRBN/DDB1] was investigated with two methods: AlphaLISA dose response assay or HTRF ternary complex assay.
Chain of [MCL-1]-[compound of formula (I)]-[CRBN/DDB1] complex (Q07820 whole entry): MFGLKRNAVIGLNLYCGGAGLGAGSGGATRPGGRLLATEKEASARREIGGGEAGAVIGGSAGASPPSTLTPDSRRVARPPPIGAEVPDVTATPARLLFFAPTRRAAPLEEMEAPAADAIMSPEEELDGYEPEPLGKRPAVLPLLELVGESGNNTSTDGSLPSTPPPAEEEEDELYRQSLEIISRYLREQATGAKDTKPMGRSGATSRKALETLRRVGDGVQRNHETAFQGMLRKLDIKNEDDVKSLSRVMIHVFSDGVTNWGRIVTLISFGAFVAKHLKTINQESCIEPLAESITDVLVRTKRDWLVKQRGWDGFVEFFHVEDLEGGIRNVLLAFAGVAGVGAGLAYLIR
Chain of [MCL-1]-[compound of formula (I)]-[CRBN/DDB1] complex (Q96SW2 whole entry): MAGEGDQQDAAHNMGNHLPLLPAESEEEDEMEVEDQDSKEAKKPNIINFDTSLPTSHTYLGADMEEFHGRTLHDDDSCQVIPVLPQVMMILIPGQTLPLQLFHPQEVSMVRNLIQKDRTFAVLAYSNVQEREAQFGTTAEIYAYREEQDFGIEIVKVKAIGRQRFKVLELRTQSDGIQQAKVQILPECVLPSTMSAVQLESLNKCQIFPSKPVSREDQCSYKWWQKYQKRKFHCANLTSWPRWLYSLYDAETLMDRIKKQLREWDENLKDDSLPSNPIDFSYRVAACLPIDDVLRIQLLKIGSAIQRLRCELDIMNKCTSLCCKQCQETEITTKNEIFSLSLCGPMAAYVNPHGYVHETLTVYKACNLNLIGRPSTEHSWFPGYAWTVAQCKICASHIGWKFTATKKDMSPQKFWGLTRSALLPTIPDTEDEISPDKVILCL
Chain of [MCL-1]-[compound of formula (I)]-[CRBN/DDB1] complex (Q16531 whole entry partner): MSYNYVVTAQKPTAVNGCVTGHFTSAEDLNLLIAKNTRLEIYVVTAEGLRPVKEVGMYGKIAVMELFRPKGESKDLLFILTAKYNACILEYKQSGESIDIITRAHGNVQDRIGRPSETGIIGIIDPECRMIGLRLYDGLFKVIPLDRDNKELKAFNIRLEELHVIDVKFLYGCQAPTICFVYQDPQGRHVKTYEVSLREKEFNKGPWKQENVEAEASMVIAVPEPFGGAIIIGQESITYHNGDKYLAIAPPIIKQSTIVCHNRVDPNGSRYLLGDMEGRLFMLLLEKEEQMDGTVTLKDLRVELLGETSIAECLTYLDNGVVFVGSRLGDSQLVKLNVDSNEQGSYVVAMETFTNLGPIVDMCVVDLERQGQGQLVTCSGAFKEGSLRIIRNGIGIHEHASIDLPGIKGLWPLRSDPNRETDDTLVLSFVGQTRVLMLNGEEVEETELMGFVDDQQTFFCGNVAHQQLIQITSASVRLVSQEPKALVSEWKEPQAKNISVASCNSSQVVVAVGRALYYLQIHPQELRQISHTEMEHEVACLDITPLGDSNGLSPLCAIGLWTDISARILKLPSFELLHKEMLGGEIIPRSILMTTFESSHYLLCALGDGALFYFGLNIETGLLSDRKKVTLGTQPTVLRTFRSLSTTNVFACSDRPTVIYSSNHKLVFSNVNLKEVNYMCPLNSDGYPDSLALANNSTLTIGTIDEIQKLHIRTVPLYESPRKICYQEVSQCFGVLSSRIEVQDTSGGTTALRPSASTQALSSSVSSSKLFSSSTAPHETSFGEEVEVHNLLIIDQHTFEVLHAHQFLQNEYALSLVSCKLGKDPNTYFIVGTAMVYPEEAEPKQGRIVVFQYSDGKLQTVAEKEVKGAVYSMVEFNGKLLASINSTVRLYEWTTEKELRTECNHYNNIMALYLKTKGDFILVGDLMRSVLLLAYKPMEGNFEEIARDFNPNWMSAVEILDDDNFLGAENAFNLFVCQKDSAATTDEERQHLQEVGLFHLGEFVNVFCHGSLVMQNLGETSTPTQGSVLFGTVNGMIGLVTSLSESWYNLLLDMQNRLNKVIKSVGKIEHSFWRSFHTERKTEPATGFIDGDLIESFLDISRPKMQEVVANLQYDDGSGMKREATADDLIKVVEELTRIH
Two types of protein solution were prepared: • 40 nM biotinylated hMCL-1, 40 μg/ml AlphaScreen Streptavidin-coated Donor Beads in PBS buffer with 0.1% Tween-20 and 1 mM DTT, • 200 nM 6×His-CRBN/Strep-DDB1, 40 μg/ml AlphaLISA Anti-6×His Acceptor beads in PBS buffer with 0.1% Tween-20 and 1 mM DTT.
The prepared solutions were incubated at room temperature for 45 min and then the solution containing the donor beads was mixed with the solution containing the acceptor beads.
The tested compounds were dispensed onto a white 384-well AlphaPlate 384 SW. DMSO was backfilled to all wells, resulting in a final DMSO content of 2%. Wells containing only DMSO served as background. Next, 10 μl of solution with donor and acceptor beads was added to the wells.
The plate was sealed with transparent film and shaken using a VibroTurbulator for 60 see at room temperature, level 3. The plate was then spun down shortly (10 s, 1000 rcf, room temperature) and incubated at 25° C. for 30 min.
The read-out was performed with PerkinElmer Enspire Multimode Plate Reader (method for AlphaLISA 384-well low volume, Filterset: λexc=680 nm, λem=615 nm).
The results were analyzed as follows: • 1) an average of luminescence for background signal was calculated and used as a negative control; • 2) average of the maximum measured luminescence for 233 was calculated and used as an internal positive control; • 3) raw luminescence values were normalized against positive and negative controls; • 4) concentration points above the hook point were excluded; • 5) EC50 and pEC50 values were determined.
For the compound `Cc1nn(C)c(C)c1-c1c(Cl)ccc2c(CCCOc3cccc4ccccc34)c(C(=O)O)n(CCN3CC4CC(C3)N4C(=O)COc3cccc4c3C(=O)N(C3CCC(=O)NC3=O)C4=O)c12` (stereo not shown) [Compound 208, 6-chloro-1-(2-(6-(2-((2-(2,6-dioxopiperidin-3-yl)-1,3-dioxoisoindolin-4-yl)oxy)acetyl)-3,6-diazabicyclo[3.1.1]heptan-3-yl)ethyl)-3-(3-(naphthalen-1-yloxy)propyl)-7-(1,3,5-trimethyl-1H-pyrazol-4-yl)-1H-indole-2-carboxylic acid], the EC50 is below 100 nM.
Consider `Cc1nn(C)c(C)c1-c1c(Cl)ccc2c(CCCOc3cccc4ccccc34)c(C(=O)O)n(CCN3C[C@@H]4C[C@H]3CN4C(=O)COc3cccc4c3CN(C3CCC(=O)NC3=O)C4=O)c12` (stereo partly drawn) [Compound 209, 6-chloro-1-{2-[(1S,4S)-5-(2-{[2-(2,6-dioxopiperidin-3-yl)-1-oxo-2,3-dihydro-1H-isoindol-4-yl]oxy}acetyl)-2,5-diazabicyclo[2.2.1]heptan-2-yl]ethyl}-3-[3-(naphthalen-1-yloxy)propyl]-7-(1,3,5-trimethyl-1H-pyrazol-4-yl)-1H-indole-2-carboxylic acid], for which the EC50 was below 100 nM.
`Cc1nn(C)c(C)c1-c1c(Cl)ccc2c(CCCOc3cccc4c3CCCC4)c(C(=O)O)n(CCN3CCN(C(=O)COc4cccc5c4CN(C4CCC(=O)NC4=O)C5=O)CC3)c12` (stereo not shown) [Compound 219, 6-chloro-1-(2-(4-(2-((2-(2,6-dioxopiperidin-3-yl)-1-oxoisoindolin-4-yl)oxy)acetyl)piperazin-1-yl)ethyl)-3-(3-((5,6,7,8-tetrahydronaphthalen-1-yl)oxy)propyl)-7-(1,3,5-trimethyl-1H-pyrazol-4-yl)-1H-indole-2-carboxylic acid]: the EC50 is below 10 nM.
As to `Cc1cc(OCCCc2c(C(=O)O)n(C)c3c(-c4c(C)nn(CCCOCCOCCNc5cccc6c5C(=O)N(C5CCC(=O)NC5=O)C6=O)c4C)cccc23)cc(C)c1Cl` (stereo not shown) [Compound 227, 3-(3-(4-chloro-3,5-dimethylphenoxy)propyl)-7-(1-(3-(2-(2-((2-(2,6-dioxopiperidin-3-yl)-1,3-dioxoisoindolin-4-yl)amino)ethoxy)ethoxy)propyl)-3,5-dimethyl-1H-pyrazol-4-yl)-1-methyl-1H-indole-2-carboxylic acid], the EC50 was below 1000 nM.
On to `Cc1nn(CCCOCCOCCNc2cccc3c2C(=O)N(C2CCC(=O)NC2=O)C3=O)c(C)c1-c1cccc2c(CCCOc3cccc4ccccc34)c(C(=O)O)n(CCN3CCOCC3)c12` (stereo not shown) [Compound 232, 7-(1-(3-(2-(2-((2-(2,6-dioxopiperidin-3-yl)-1,3-dioxoisoindolin-4-yl)amino)ethoxy)ethoxy)propyl)-3,5-dimethyl-1H-pyrazol-4-yl)-1-(2-morpholinoethyl)-3-(3-(naphthalen-1-yloxy)propyl)-1H-indole-2-carboxylic acid], for which the EC50 is below 1000 nM.
Turning to `Cc1cc(OCCCc2c(C(=O)O)n(CCN3CCN(C(=O)CNc4cccc5c4C(=O)N(C4CCC(=O)NC4=O)C5=O)CC3)c3c(-c4c(C)nn(C)c4C)cccc23)cc(C)c1Cl` (stereo not shown) [Compound 233, 3-(3-(4-chloro-3,5-dimethylphenoxy)propyl)-1-(2-(4-((2-(2,6-dioxopiperidin-3-yl)-1,3-dioxoisoindolin-4-yl)glycyl)piperazin-1-yl)ethyl)-7-(1,3,5-trimethyl-1H-pyrazol-4-yl)-1H-indole-2-carboxylic acid], the EC50 was below 1000 nM.
Take `Cc1nn(C)c(COc2ccc(N3CCN(S(=O)(=O)N(C)C)CC3)cc2)c1-c1cccc2c(CCCOc3cccc4ccccc34)c(C(=O)O)n(CCN3CCN(CCCOCCOCCNc4cccc5c4C(=O)N(C4CCC(=O)NC4=O)C5=O)CC3)c12` (stereo not shown) [Compound 247, 7-(5-((4-(4-(N,N-dimethylsulfamoyl)piperazin-1-yl)phenoxy)methyl)-1,3-dimethyl-1H-pyrazol-4-yl)-1-(2-(4-(3-(2-(2-((2-(2,6-dioxopiperidin-3-yl)-1,3-dioxoisoindolin-4-yl)amino)ethoxy)ethoxy)propyl)piperazin-1-yl)ethyl)-3-(3-(naphthalen-1-yloxy)propyl)-1H-indole-2-carboxylic acid trifluoroacetate]: the EC50 is below 1000 nM.
For `Cc1nn(C)c(COc2ccc(N3CCN(S(=O)(=O)N(C)C)CC3)cc2)c1-c1cccc2c(CCCOc3cccc4ccccc34)c(C(=O)O)n(CCN3CCN(C(=O)COc4ccc5c(c4)C(=O)N(C4CCC(=O)NC4=O)C5=O)CC3)c12` (stereo not shown) [Compound 248, 7-(5-((4-(4-(N,N-dimethylsulfamoyl)piperazin-1-yl)phenoxy)methyl)-1,3-dimethyl-1H-pyrazol-4-yl)-1-(2-(4-(2-((2-(2,6-dioxopiperidin-3-yl)-1,3-dioxoisoindolin-5-yl)oxy)acetyl)piperazin-1-yl)ethyl)-3-(3-(naphthalen-1-yloxy)propyl)-1H-indole-2-carboxylic acid], the EC50 is below 1000 nM.
Take `Cc1c(-c2cccc3c(CCCOc4cccc5ccccc45)c(C(=O)O)n(CCN4CCN(C(=O)COc5cccc6c5C(=O)N(C5CCC(=O)NC5=O)C6=O)CC4)c23)c(COc2ccc(Br)c(C=O)c2)nn1C` (stereo not shown) [Compound 251, 7-(3-((4-Bromo-3-formylphenoxy)methyl)-1,5-dimethyl-1H-pyrazol-4-yl)-1-(2-(4-(2-((2-(2,6-dioxopiperidin-3-yl)-1,3-dioxoisoindolin-4-yl)oxy)acetyl)piperazin-1-yl)ethyl)-3-(3-(naphthalen-1-yloxy)propyl)-1H-indole-2-carboxylic acid]: the EC50 was below 100 nM.
For the compound `Cc1c2c(nn1C)CSCc1cc(n(C)n1)CSc1cc(c3ccccc3c1)OCCCc1c(C(=O)NS(=O)(=O)CCNC(=O)CCOCCOCCNc3cccc4c3C(=O)N(C3CCC(=O)NC3=O)C4=O)n(C)c3c-2c(Cl)ccc13` (stereo not shown) [Compound 261, N-{2-[({17-chloro-5,13,14,22-tetramethyl-28-oxa-2,9-dithia-5,6,12,13,22-pentaazaheptacyclo[27.7.1.1^4,^7.0^11,^15.0,^16,^21.0^20,^24.0^30,^35]octatriaconta-1(37),4(38),6,11,14,16,18,20,23,29,31,33,35-tridecaen-23-yl}formamido)sulfonyl]ethyl}-3-[2-(2-{[2-(2,6-dioxopiperidin-3-yl)-1,3-dioxo-2,3-dihydro-1H-isoindol-4-yl]amino}ethoxy)ethoxy]propanamide], the EC50 was below 1000 nM.
Regarding `Cc1nn(C)c(C)c1-c1c(Cl)ccc2c(CCCOc3cccc4ccccc34)c(C(=O)O)n(CCN3CCN(C(=O)COc4cc(C(F)(F)F)nc5c(C(=O)NC6CCC(=O)NC6=O)scc45)CC3)c12` (stereo not shown) [Compound 267, 6-chloro-1-(2-{4-[2-({7-[(2,6-dioxopiperidin-3-yl)carbamoyl]-2-(trifluoromethyl)thieno[3,4-b]pyridin-4-yl}oxy)acetyl]piperazin-1-yl}ethyl)-3-[3-(naphthalen-1-yloxy)propyl]-7-(1,3,5-trimethyl-1H-pyrazol-4-yl)-1H-indole-2-carboxylic acid], the EC50 was below 100 nM.
